Measurements: US9034922B2, “Composition for maintaining function of platelets” (THE UNIVERSITY OF TOKYO, priority 2010, dated 2015)

Test system: human platelets in laser/hematoporphyrin-induced thrombus formation
Assay: Thrombus formation model in NOG mice with biomolecular imaging (injected human platelets)
Assay type: in vivo, mouse
Details: Test Example 16; platelets prepared with 15 μM S-45457 and 100 μM CCCP, 37° C., 24 hours, injected into NOG mice
Description: The maintaining effect of the compound (such as S-45457) according to the present invention on the adhesion ability of platelets, particularly adhesion ability of platelets to a blood vessel in vivo, was evaluated using a biomolecular imaging technique and a thrombus formation model developed by the present inventors.
Note that the thrombus formation model used in this Test Example induces thrombus formation as follows. Specifically, reactive oxygen species (ROS) are generated locally in a blood vessel by using laser irradiation along with hematoporphyrin, and so forth. This gives damage to vascular endothelial cells, and thereby platelets adhere to the blood vessel, so that a thrombus is formed. […]
First, platelets were prepared for injection into mice used as a model of thrombus formation. […] After the incubation (in the case of the positive control, without incubation), the number of platelets in the precipitate was counted. […] The suspension was then incubated at room temperature for 15 minutes to label the platelets with fluorescence. […]
Next, the thrombus formation model mouse was prepared. […] Then, platelets labelled with fluorescence as described above were injected into the NOG mouse so that the number of the platelets was 15% of the number of circulating platelets. […]

`CC#CCOc1ccc(S(=O)(=O)CC(c2ccc(CNS(C)(=O)=O)cc2)N(O)C=O)cc1` (stereo not shown) [Compound I-4, N-{4-[2-(4-But-2-ynyloxybenzenesulfonyl)-1-(formylhydroxyamino)ethyl]benzyl}methanesulfonamide] was tested, and the “percentage of the human-derived platelets contributing to the thrombus formation” value was “higher than that of the negative control”.
